What was measured:
rat [1] = details: Prenatal developmental toxicity study, sprague dawley, Oral, Gavage/Intubation, dose end: 17 GD
rat [2] = details: Fertility (Segment I), sprague dawley, Oral, Gavage/Intubation, dose end: 7 GD
rabbit [3] = details: Prenatal developmental toxicity study, new zealand white, Oral, Gavage/Intubation, dose end: 19 GD
rat [4] = details: Fertility (Segment I), sprague dawley, Oral, Gavage/Intubation, dose end: 7 GD; remark: listed apart in the source
rat [5] = details: Prenatal developmental toxicity study, sprague dawley, Oral, Gavage/Intubation, dose end: 17 GD; remark: listed apart in the source
rat [6] = details: Prenatal developmental toxicity study; sprague dawley; Oral; Gavage/Intubation; dose end: 17 GD; group: maternal; systemic / in life observation / body weight / body weight + systemic / in life observation / body weight / body weight gain + systemic / in…
rabbit [7] = details: Prenatal developmental toxicity study; new zealand white; Oral; Gavage/Intubation; dose end: 19 GD; group: maternal; systemic / in life observation / body weight / body weight gain + systemic / in life observation / food consumption / food consumption
rat [8] = details: Sub-acute repeat dose toxicity, sprague dawley, Oral, Gavage/Intubation, dose end: 4 week, group: systemic
dog [9] = details: Sub-acute repeat dose toxicity, beagle, Oral, Capsule, dose end: 1 month, group: systemic
rat [10] = details: Subchronic oral toxicity in rodents, fischer, Feed, dose end: 13 week, group: systemic, systemic / in life observation / body weight / body weight + systemic / in life observation / body weight / body weight gain + systemic / in…
mouse [11] = details: Subchronic oral toxicity in rodents, b6c3f1, Feed, dose end: 13 week, group: systemic
rat [12] = details: Prenatal developmental toxicity study; sprague dawley; Oral; Gavage/Intubation; dose end: 20 GD; group: maternal; systemic / in life observation / body weight / body weight gain
rat [13] = details: Combined chronic toxicity/carcinogenicity, fischer, Oral, Water, dose end: 24 month, group: systemic
rat [14] = details: Subchronic oral toxicity in rodents, fischer, Water, dose end: 93 day
rat [15] = details: Neurotoxicity screening battery; long evans; Injection; Intraperitoneal; dose end: 13 week; group: cannot be grouped; systemic / in life observation / clinical signs / abnormal gait + systemic / in life observation / clinical signs / irritability + systemic…
mouse [16] = details: Multigenerational reproductive toxicity study, cd1, Oral, Water, dose end: 2 generation
rat [17] = details: Developmental neurotoxicity study, fischer, Oral, Gavage/Intubation, dose end: 22 PND, group: cannot be grouped
rat [18] = details: Developmental neurotoxicity study; sprague dawley; Oral; Gavage/Intubation; dose end: 77 PND; group: cannot be grouped; systemic / in life observation / body weight / body weight
mouse [19] = details: Prenatal developmental toxicity study, cd1, Oral, Gavage/Intubation, dose end: 17 GD
rat [20] = details: Developmental neurotoxicity study; wistar; Oral; Gavage/Intubation; dose end: 91 PND; group: cannot be grouped; systemic / in life observation / body weight / body weight + systemic / in life observation / body weight / body weight gain + systemic / in…
rat [21] = details: Combined chronic toxicity/carcinogenicity; sprague dawley; Oral; Feed; dose end: 22 month; group: systemic; systemic / clinical chemistry / albumin / albumin + systemic / pathology microscopic / heart / mineralization + systemic / pathology …
mouse [22] = details: Carcinogenicity; cd1; Oral; Feed; dose end: 18 month; group: systemic; systemic / pathology gross / urinary bladder / calculus + systemic / pathology microscopic / urinary bladder / hyperplasia + systemic / …
dog [23] = details: Chronic toxicity; beagle; Oral; Capsule; dose end: 12 month; group: systemic; systemic / pathology microscopic / urinary bladder / calculus + systemic / pathology microscopic / urinary bladder / crystals + systemic / …
dog [24] = details: Subchronic oral toxicity in nonrodent, beagle, Capsule, dose end: 90 day, group: systemic
rat [25] = details: Subchronic oral toxicity in rodents, sprague dawley, Feed, dose end: 13 week, group: systemic, systemic / in life observation / body weight / body weight + systemic / in life observation / body weight / body weight gain + systemic / …
[26] = group: developmental, developmental / developmental malformation / trunk / absent genital tubercle + developmental / developmental malformation / trunk / anal …
[27] = group: maternal, systemic / in life observation / body weight / body weight + systemic / in life observation / body weight / body weight gain + systemic / in…
[28] = group: maternal, reproductive / reproductive performance / estrous cycle / abnormal
[29] = group: maternal, reproductive / reproductive performance / estrous cycle / abnormal + reproductive / reproductive performance / estrous cycle / corpora lutea…
[30] = group: parental, systemic / in life observation / body weight / body weight gain
[31] = group: parental, systemic / in life observation / body weight / body weight gain + systemic / in life observation / food consumption / food consumption
[32] = group: developmental, developmental / developmental malformation / bone / incomplete ossification + developmental / developmental malformation / bone / unossified…
[33] = group: maternal, systemic / in life observation / body weight / body weight gain + systemic / in life observation / food consumption / food consumption
[34] = group: maternal, systemic / in life observation / body weight / body weight gain + systemic / in life observation / food consumption / food consumption + …
[35] = group: parental, systemic / in life observation / body weight / body weight + systemic / in life observation / body weight / body weight gain
[36] = group: parental, systemic / in life observation / body weight / body weight + systemic / in life observation / body weight / body weight gain + systemic / in…
[37] = group: developmental, developmental / developmental malformation / bone / unossified + systemic / in life observation / body weight / fetal weight
[38] = systemic / clinical chemistry / alanine aminotransferase (alt/sgpt) / alanine aminotransferase (alt/sgpt) + systemic / in life observation…
[39] = systemic / organ weight / salivary glands / absolute + systemic / pathology microscopic / vagina / diestrus
[40] = systemic / in life observation / clinical signs / defecation (diarrhea)
[41] = systemic / in life observation / clinical signs / defecation (diarrhea) + systemic / clinical chemistry / alanine aminotransferase (alt/sgpt…
[42] = systemic / organ weight / liver / relative to body weight + systemic / pathology microscopic / liver / pigmentation
[43] = systemic / pathology microscopic / testes / mesothelioma nos + systemic / pathology microscopic / brain / astrocytoma nos + systemic / …
[44] = group: cholinesterase, cholinesterase / cholinesterase / cholinesterase / cholinesterase (che)
[45] = group: systemic, systemic / clinical chemistry / alkaline phosphatase (alp/alk) / alkaline phosphatase (alp/alk) + systemic / hematology / erythrocyte (rbc) …
[46] = group: parental, systemic / in life observation / body weight / body weight + systemic / organ weight / adrenal gland / absolute + systemic / organ weight / …
[47] = group: reproductive, reproductive / offspring survival early / live fetuses / live fetuses
[48] = systemic / in life observation / body weight / offspring (pup) weight + reproductive / reproductive performance / pregnancy index / …
[49] = group: developmental, systemic / in life observation / body weight / fetal weight
[50] = group: maternal, systemic / in life observation / body weight / body weight gain + systemic / in life observation / clinical signs / splayed hindlimbs + …
[51] = systemic / pathology microscopic / urinary bladder / calculus + systemic / pathology microscopic / urinary bladder / hemorrhage + systemic…

## CN(C)C(=O)NC1(c2ccccc2)CCN(CC[C@@]2(c3ccc(F)c(F)c3)CN(C(=O)c3ccccc3)CCO2)CC1.Cl
Rat [1]; [26]
  LEL: 500 mg/kg/day
  LOAEL: 500 mg/kg/day
  NEL: 100 mg/kg/day
  NOAEL: 100 mg/kg/day
Rat [1]; [27]
  LOAEL: 500 mg/kg/day
  NEL: 20 mg/kg/day
  NOAEL: 100 mg/kg/day
Rat [1]; group: maternal, systemic / in life observation / clinical signs / piloerection + systemic / pathology gross / kidney / reduced size
  LEL: 100 mg/kg/day
Rat [2]; [28]
  LEL: 20 mg/kg/day
  LOAEL: 100 mg/kg/day
  NEL: < 20 mg/kg/day
Rat [2]; [29]
  NOAEL: 20 mg/kg/day
Rat [2]; [30]
  LEL: 20 mg/kg/day
  NEL: < 20 mg/kg/day
Rat [2]; [31]
  LOAEL: 100 mg/kg/day
  NOAEL: 20 mg/kg/day
Rabbit [3]; [32]
  LEL: 200 mg/kg/day
  LOAEL: 200 mg/kg/day
  NEL: 60 mg/kg/day
  NOAEL: 60 mg/kg/day
Rabbit [3]; [33]
  LEL: 60 mg/kg/day
  LOAEL: 60 mg/kg/day
Rabbit [3]; [34]
  NEL: 20 mg/kg/day
  NOAEL: 20 mg/kg/day
Rat [4]; [29]
  LEL: 250 mg/kg/day
  LOAEL: > 250 mg/kg/day
  NEL: 70 mg/kg/day
  NOAEL: ≥ 250 mg/kg/day
Rat [4]; [35]
  LEL: 70 mg/kg/day
  LOAEL: 70 mg/kg/day
Rat [4]; [36]
  NEL: 20 mg/kg/day
  NOAEL: 20 mg/kg/day
Rat [5]; [37]
  LEL: 250 mg/kg/day
  LOAEL: 250 mg/kg/day
  NEL: 70 mg/kg/day
  NOAEL: 70 mg/kg/day
Rat [5]; [27]
  LEL: 250 mg/kg/day
  LOAEL: 250 mg/kg/day
  NEL: 70 mg/kg/day
  NOAEL: 70 mg/kg/day
Rat [6]
  LEL: 250 mg/kg/day
  LOAEL: > 250 mg/kg/day
  NEL: < 250 mg/kg/day
  NOAEL: ≥ 250 mg/kg/day
Rabbit [7]
  LEL: 100 mg/kg/day
  LOAEL: > 200 mg/kg/day
  NEL: 20 mg/kg/day
  NOAEL: ≥ 200 mg/kg/day
Rat [8]; [38]
  LOAEL: 100 mg/kg/day
  NOAEL: 20 mg/kg/day
Rat [8]; [39]
  LEL: 20 mg/kg/day
  NEL: < 20 mg/kg/day
Dog [9]; [40]
  LEL: 20 mg/kg/day
  NEL: < 20 mg/kg/day
Dog [9]; [41]
  LOAEL: > 180 mg/kg/day
  NOAEL: ≥ 180 mg/kg/day

## Nc1c(Br)cc(Br)c2c1C(=O)c1ccccc1C2=O [1-Amino-2,4-dibromoanthraquinone]
Rat [10]
  LEL: 150 mg/kg/day
  LOAEL: 150 mg/kg/day
  NEL: < 150 mg/kg/day
  NOAEL: < 150 mg/kg/day
Mouse [11]; [42]
  LEL: 500 mg/kg/day
  NEL: < 500 mg/kg/day
Mouse [11]; systemic / pathology microscopic / liver / hypertrophy
  LOAEL: 1850 mg/kg/day
Mouse [11]; systemic / pathology microscopic / liver / hypertrophy + systemic / in life observation / body weight / body weight gain + systemic / in …
  NOAEL: 1080 mg/kg/day

## C=CC(N)=O [Acrylamide]
Rat [12]
  LEL: 7.5 mg/kg/day
  LOAEL: 7.5 mg/kg/day
  NEL: 2.5 mg/kg/day
  NOAEL: 2.5 mg/kg/day
Rat [13]; systemic / pathology microscopic / testes / mesothelioma nos
  LEL: 0.1 mg/kg/day
Rat [13]; [43]
  LOAEL: > 2 mg/kg/day
  NEL: 0.01 mg/kg/day
  NOAEL: ≥ 2 mg/kg/day
Rat [14]; [44]
  LEL: 20 mg/kg/day
  LOAEL: > 20 mg/kg/day
  NEL: 5 mg/kg/day
  NOAEL: ≥ 20 mg/kg/day
Rat [14]; [45]
  LOAEL: > 20 mg/kg/day
  NOAEL: ≥ 20 mg/kg/day
Rat [14]; group: systemic, systemic / hematology / erythrocyte (rbc) count differential / erythrocyte (rbc) + systemic / hematology / hematocrit (hct) / hematocrit (…
  NEL: 0.2 mg/kg/day
Rat [14]; group: systemic, systemic / pathology microscopic / nerve / [other]
  LEL: 1 mg/kg/day
Rat [15]
  LEL: 1 mg/kg/day
  LOAEL: > 12 mg/kg/day
  NEL: < 1 mg/kg/day
  NOAEL: ≥ 12 mg/kg/day
Mouse [16]; [46]
  LOAEL: > 7.7 mg/kg/day
  NEL: 0.86 mg/kg/day
  NOAEL: ≥ 7.7 mg/kg/day
Mouse [16]; group: parental, systemic / organ weight / adrenal gland / absolute + systemic / organ weight / kidney / absolute + systemic / organ weight / liver / …
  LEL: 2.9 mg/kg/day
Mouse [16]; [47]
  LEL: 7.7 mg/kg/day
  LOAEL: > 7.7 mg/kg/day
  NOAEL: ≥ 7.7 mg/kg/day
Rat [17]; systemic / in life observation / body weight / offspring (pup) weight
  LEL: 1 mg/kg/day
Rat [17]; systemic / in life observation / body weight / offspring (pup) weight + developmental / developmental landmark / pinna unfolding / pinna …
  NEL: 0.5 mg/kg/day
Rat [17]; [48]
  LOAEL: > 10 mg/kg/day
  NOAEL: ≥ 10 mg/kg/day
Rat [18]
  LEL: 5 mg/kg/day
  LOAEL: 5 mg/kg/day
  NEL: < 5 mg/kg/day
  NOAEL: < 5 mg/kg/day
Mouse [19]; [49]
  LEL: 45 mg/kg/day
  LOAEL: > 45 mg/kg/day
  NEL: 15 mg/kg/day
  NOAEL: ≥ 45 mg/kg/day
Mouse [19]; [50]
  LOAEL: > 45 mg/kg/day
  NEL: 3 mg/kg/day
  NOAEL: ≥ 45 mg/kg/day
Mouse [19]; group: maternal, systemic / organ weight / uterus / nos
  LEL: 15 mg/kg/day
Rat [20]
  LEL: 25 mg/kg/day
  LOAEL: > 25 mg/kg/day
  NEL: < 25 mg/kg/day
  NOAEL: ≥ 25 mg/kg/day

## CCS(=O)(=O)c1nc2ccccn2c1S(=O)(=O)NC(=O)Nc1nc(OC)cc(OC)n1 [Sulfosulfuron]
Rat [21]
  LEL: 244 mg/kg/day
  LOAEL: 244 mg/kg/day
  NEL: 24.4 mg/kg/day
  NOAEL: 24.4 mg/kg/day
Mouse [22]
  LEL: 394 mg/kg/day
  LOAEL: 394 mg/kg/day
  NEL: 93.4 mg/kg/day
  NOAEL: 93.4 mg/kg/day
Dog [23]
  LEL: 500 mg/kg/day
  LOAEL: 500 mg/kg/day
  NEL: 100 mg/kg/day
  NOAEL: 100 mg/kg/day
Dog [24]; systemic / pathology microscopic / urinary bladder / calculus
  LEL: 100 mg/kg/day
Dog [24]; [51]
  NEL: 30 mg/kg/day
  NOAEL: 100 mg/kg/day
Dog [24]; systemic / urinalysis / sediment microscopic / crystalluria
  LOAEL: 300 mg/kg/day
Rat [25]
  LEL: 1280 mg/kg/day
  LOAEL: 1280 mg/kg/day
  NEL: 370 mg/kg/day
  NOAEL: 370 mg/kg/day

— EPA's ToxRefDB 2
